According to PubChem BioAssay AID248 (DTP/NCI, 2004):
Toxic doses and inconclusive results are not listed. Rule as the data show it: active = T/C of 150% or more; inactive = T/C below 125%.

Tested on: L1210 leukemia ip in BDF1 mice, survival T/C
Assay: NCI In Vivo Anticancer Drug Screen. Data for tumor model L1210 Leukemia (intraperitoneal) in B6D2F1 (BDF1) mice
Conditions: endpoint: mean survival time, higher = longer survival
In short: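 Ratio derived from survival: compound-dosed mice over vehicle-dosed mice, all bearing a transplantable tumor.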

[1] = dose: 100.0 mg/kg/injection, schedule: Q04DX003 (ip), vehicle: saline
[2] = dose: 200.0 mg/kg/injection, schedule: Q04DX003 (ip), vehicle: saline
[3] = dose: 400.0 mg/kg/injection, schedule: Q04DX003 (ip), vehicle: saline
[4] = dose: 100.0 mg/kg/injection, schedule: Q04DX003 (ip), vehicle: saline with Tween-80
[5] = dose: 200.0 mg/kg/injection, schedule: Q04DX003 (ip), vehicle: saline with Tween-80
[6] = dose: 400.0 mg/kg/injection, schedule: Q04DX003 (ip), vehicle: saline with Tween-80
[7] = dose: 100.0 mg/kg/injection, schedule: Q01DX001 (ip), vehicle: saline
[8] = dose: 200.0 mg/kg/injection, schedule: Q01DX001 (ip), vehicle: saline
[9] = dose: 400.0 mg/kg/injection, schedule: Q01DX001 (ip), vehicle: saline
[10] = dose: 100.0 mg/kg/injection, schedule: Q01DX001 (ip), vehicle: carboxymethylcellulose (CMC)
[11] = dose: 200.0 mg/kg/injection, schedule: Q01DX001 (ip), vehicle: carboxymethylcellulose (CMC)
[12] = dose: 400.0 mg/kg/injection, schedule: Q01DX001 (ip), vehicle: carboxymethylcellulose (CMC)

Measured: T/C

Clc1ccc(-c2cc(=[N+]3CC[N+](=c4cc(-c5ccc(Cl)cc5)ss4)CC3)ss2)cc1
inactive: dose: 50.0 mg/kg/injection, schedule: Q01DX009 (ip), vehicle: water 102 % of control | dose: 100.0 mg/kg/injection, schedule: Q01DX009 (ip), vehicle: water 89 % of control | dose: 100.0 mg/kg/injection, schedule: Q04DX003 (ip), vehicle: water 106 % of control | dose: 200.0 mg/kg/injection, schedule: Q01DX009 (ip), vehicle: water 105 % of control | dose: 200.0 mg/kg/injection, schedule: Q04DX003 (ip), vehicle: water 104 % of control | dose: 400.0 mg/kg/injection, schedule: Q04DX003 (ip), vehicle: water 107 % of control

CC(=O)OCC(=O)C12OC1CC1C3CCC4CC(O)CCC4(C)C3CC(=O)C12C (stereo unspecified)
inactive: dose: 6.0 mg/kg/injection, schedule: Q04DX002 (ip), vehicle: other 91 % of control | dose: 12.5 mg/kg/injection, schedule: Q04DX002 (ip), vehicle: other 106 % of control | dose: 25.0 mg/kg/injection, schedule: Q04DX002 (ip), vehicle: other 98 % of control | dose: 50.0 mg/kg/injection, schedule: Q04DX002 (ip), vehicle: other 98 % of control

CCCCOB(CCl)OCCCC
inactive: dose: 6.25 mg/kg/injection, schedule: Q04DX003 (ip), vehicle: saline sonified 103 % of control | dose: 12.5 mg/kg/injection, schedule: Q04DX003 (ip), vehicle: saline sonified 97 % of control | dose: 25.0 mg/kg/injection, schedule: Q04DX003 (ip), vehicle: saline sonified 100 % of control

COc1ccc2c3c(ccc2c1)C(=O)C(C)(C#N)CC3 (stereo unspecified)
inactive: dose: 100.0 mg/kg/injection, schedule: Q01DX009 (ip), vehicle: saline 88 % of control | [1] 89 % of control | dose: 200.0 mg/kg/injection, schedule: Q01DX009 (ip), vehicle: saline 91 % of control | [2] 89 % of control | dose: 400.0 mg/kg/injection, schedule: Q01DX009 (ip), vehicle: saline 95 % of control | [3] 94 % of control

CCCCCCCCCCP(=S)(CCCC)CCCC
inactive: dose: 100.0 mg/kg/injection, schedule: Q04DX003 (ip), vehicle: Klucel (hydroxypropylcellulose) (HPC) 98 % of control | dose: 200.0 mg/kg/injection, schedule: Q04DX003 (ip), vehicle: Klucel (hydroxypropylcellulose) (HPC) 101 % of control | dose: 400.0 mg/kg/injection, schedule: Q04DX003 (ip), vehicle: Klucel (hydroxypropylcellulose) (HPC) 104 % of control

CCCCP(=[Se])(CCCC)CCCC
inactive: dose: 0.78 mg/kg/injection, schedule: Q01DX009 (ip), vehicle: Klucel (hydroxypropylcellulose) (HPC) 93 % of control | dose: 1.56 mg/kg/injection, schedule: Q01DX009 (ip), vehicle: Klucel (hydroxypropylcellulose) (HPC) 97 % of control | dose: 3.12 mg/kg/injection, schedule: Q01DX009 (ip), vehicle: Klucel (hydroxypropylcellulose) (HPC) 112 % of control | dose: 6.25 mg/kg/injection, schedule: Q01DX009 (ip), vehicle: Klucel (hydroxypropylcellulose) (HPC) 104 % of control

CN(C(=O)c1cccnc1)c1ccccc1
inactive: [4] 94 % of control | [5] 96 % of control | [6] 107 % of control

O=P(CCCCl)(OCCCCl)OCCCCl
inactive: [1] 104 % of control | [2] 114 % of control | [3] 96 % of control

CCOC(=O)CCCN(c1sc(C)c(-c2ccccc2)c1C(=O)OCC)S(=O)(=O)c1ccc(C)cc1
inactive: dose: 25.0 mg/kg/injection, schedule: Q01DX009 (ip), vehicle: saline with Tween-80 93 % of control | dose: 50.0 mg/kg/injection, schedule: Q01DX009 (ip), vehicle: saline with Tween-80 93 % of control | dose: 50.0 mg/kg/injection, schedule: Q04DX003 (ip), vehicle: saline with Tween-80 98 % of control | [4] 104 % of control | dose: 200.0 mg/kg/injection, schedule: Q01DX009 (ip), vehicle: saline with Tween-80 90 % of control | [5] 97 % of control | dose: 400.0 mg/kg/injection, schedule: Q01DX009 (ip), vehicle: saline with Tween-80 90 % of control | [6] 87 % of control

C1=C(c2ccccc2)CCN(C2(c3ccccc3)CCCCC2)C1
inactive: [7] 101 % of control | [8] 93 % of control | [9] 95 % of control

O=[N+]([O-])c1ccccc1SNc1ccc(NSc2ccccc2[N+](=O)[O-])cc1
inactive: dose: 3.13 mg/kg/injection, schedule: Q01DX001 (ip), vehicle: saline with Tween-80 105 % of control | dose: 6.25 mg/kg/injection, schedule: Q01DX001 (ip), vehicle: saline with Tween-80 100 % of control | dose: 12.5 mg/kg/injection, schedule: Q01DX001 (ip), vehicle: saline with Tween-80 97 % of control

CCCCSc1nc(NC(C)C)nc(NC(C)C)n1
inactive: dose: 100.0 mg/kg/injection, schedule: Q04DX002 (sc), vehicle: olive oil, sesame oil, peanut oil 118 % of control | dose: 200.0 mg/kg/injection, schedule: Q04DX002 (sc), vehicle: olive oil, sesame oil, peanut oil 115 % of control | dose: 400.0 mg/kg/injection, schedule: Q04DX002 (sc), vehicle: olive oil, sesame oil, peanut oil 101 % of control

O=C1c2cccc(S(=O)(=O)O)c2C(=O)c2c1cccc2S(=O)(=O)O
inactive: dose: 50.0 mg/kg/injection, schedule: Q01DX001 (ip), vehicle: carboxymethylcellulose (CMC) 109 % of control | [10] 111 % of control | [11] 109 % of control | [12] 103 % of control

O=C(O)CC1COc2ccccc2O1 (stereo unspecified)
inactive: [10] 91 % of control | [11] 105 % of control | [12] 94 % of control

COc1cc(C[N+]23CC[N+](Cc4cc(OC)cc(OC)c4)(CC2)C3)cc(OC)c1
inactive: dose: 5.0 mg/kg/injection, schedule: Q01DX001 (ip), vehicle: saline 100 % of control | dose: 10.0 mg/kg/injection, schedule: Q01DX001 (ip), vehicle: saline 100 % of control | dose: 20.0 mg/kg/injection, schedule: Q01DX001 (ip), vehicle: saline 103 % of control | dose: 40.0 mg/kg/injection, schedule: Q01DX001 (ip), vehicle: saline 103 % of control | dose: 80.0 mg/kg/injection, schedule: Q01DX001 (ip), vehicle: saline 100 % of control

CCCCCCCCCCCCCCCC(=O)NCC[N+](CC)(CC)Cc1ccc(C[N+](CC)(CC)CCNC(=O)CCCCCCCCCCCCCCC)cc1
inactive: dose: 75.0 mg/kg/injection, schedule: Q01DX001 (ip), vehicle: saline 98 % of control

C[C@]12CC[C@@H]3c4ccc(O)cc4CC[C@H]3[C@@H]1CC[C@@H]2OC(=O)CCC1CCCC1
inactive: dose: 60.0 mg/kg/injection, schedule: Q04DX003 (sc), vehicle: steriod suspending solution 104 % of control | dose: 100.0 mg/kg/injection, schedule: Q01DX001 (sc), vehicle: steriod suspending solution 107 % of control | dose: 120.0 mg/kg/injection, schedule: Q04DX003 (sc), vehicle: steriod suspending solution 104 % of control | dose: 200.0 mg/kg/injection, schedule: Q01DX001 (sc), vehicle: steriod suspending solution 113 % of control | dose: 240.0 mg/kg/injection, schedule: Q04DX003 (sc), vehicle: steriod suspending solution 100 % of control | dose: 400.0 mg/kg/injection, schedule: Q01DX001 (sc), vehicle: steriod suspending solution 107 % of control

CN(CN(C)NC(=O)c1ccccc1)NC(=O)c1ccccc1
inactive: [10] 98 % of control

CCOC(=O)c1[nH]c(-c2ccc(OC)cc2)c(C(=O)OCC)c1-c1ccccc1
inactive: dose: 100.0 mg/kg/injection, schedule: Q01DX001 (ip), vehicle: Klucel (hydroxypropylcellulose) (HPC) 88 % of control | dose: 200.0 mg/kg/injection, schedule: Q01DX001 (ip), vehicle: Klucel (hydroxypropylcellulose) (HPC) 108 % of control | dose: 400.0 mg/kg/injection, schedule: Q01DX001 (ip), vehicle: Klucel (hydroxypropylcellulose) (HPC) 114 % of control

CCOC(=O)N1C(C(=O)c2ccccc2)N(Cc2ccccc2)C(c2ccccc2)N1C(=O)OCC (stereo unspecified)
inactive: dose: 50.0 mg/kg/injection, schedule: Q01DX001 (ip), vehicle: saline 105 % of control | [7] 97 % of control | [8] 105 % of control | [9] 100 % of control
